Assay results published in US20180207249A1, “METHOD AND VACCINE COMPRISING COPOLYMER 1 FOR TREATMENT OF PSYCHIATRIC DISORDERS” (YEDA RESEARCH AND DEVELOPMENT CO. LTD., priority 2003, published 2018).

Key:
[1] = test system: rats exposed to psychotomimetic drugs; assay: Vaccination after exposure to psychotomimetic drugs; assay type: in vivo; conditions: vaccination after drug exposure, not shown
Cop-1-reactive T cells = assay: ELISA of BDNF secreted by Cop-1-reactive T cells; assay type: cell-based, Lewis rats; conditions: 48 h stimulation with antigen
Description: (iv) T-cell lines. Ten days after Cop-1 immunization, T-cell lines were generated from draining lymph node cells obtained from Lewis rats immunized with Cop-1 emulsified in CFA. The lymph nodes were surgically removed, dissociated, washed, and then activated with the antigen (10 μg/ml) in stimulation medium as previously reported (Kipnis et al., 2000). The T-cells lines were expanded by repeated stimulation and propagation.
(v) Enzyme-linked immunosorbent assay. T cell-reactive Cop-1 cells were grown for 1 week in a propagation medium, then washed with PBS and re-suspended in stimulation medium. The cultured T cells (0.5×10^6 cells/mL) were then incubated, in the presence of irradiated thymocytes (10^7 cells/mL), with concanavalin A (Con A; 1.25 μg/mL), myelin basic protein (MRP; 10 μg/ml), Cop-1 (10 μg/mL), ovalbumin (OVA; 10 μg/mL), or no antigen, in stimulation medium. After 48 h the cells were centrifaged and their supernatants were collected and sampled. Concentrations of brain-derived neurotrophic factor (BDNF) in the samples were determined with a sensitive sandwich ELISA. In brief 96-well flat-bottomed plates were coated with a chicken anti-human BDNF antibody (Promega, Madison, Wis.) in 0.025 M NaHCO3 and 0.025 M Na2CO3 (pH 8.2). Recombinant human BDNF (used as a standard; Research Diagnostics, Flanders, N.J.) was used in serial dilutions in blocking solution containing 3% bovine serum albumin, 0.05% polyoxyethylene-sorbitan monolaurate (Tween-20), and 1% fetal calf serum in PBS (pH 8.2). Bound BDNF was detected by incubating the plates with a mouse anti-human BDNF antibody (Research Diagnostics) and then with peroxidase-conjugated goat anti-mouse IgG (Jackson ImmunoResearch, West Grove, Pa.) in blocking solution. The plates were developed using a 3,3′,5,5′-tetramethylbenzidine liquid substrate system (Sigma-Aldrich). The reaction was stopped by adding 1M H3PO4, and the optical density was determined at 450 nm. Results for each experiment were calculated as the amount of secreted BDNF per 1 mL of sample, after subtraction of background levels of the irradiated thymocytes incubated with the stimulation medium.
Cop-1-reactive T cells were cultured for 48 h with Cop-1, MBP, ovalbumin, or concanavalin A in stimulation medium. T cell supernatants were collected and subjected to sandwich ELISA. […] Values are mean values (pg/ml) +/− SE (from three independent experiments) of the amounts of BDNF secreted by Cop-1-specific T cells in response to stimulation by various antigens.

[2] = test system: Treg (CD4+CD25+) co-cultured with effector T cells (Teff); assay: Inhibition assay (co-culturing of Teff with Treg), [3H]-thymidine incorporation; assay type: cell-based, mice; conditions: activated Treg incubated 2 h with Cop-1 20 μg/ml, Cop-1 20 μg/ml also added to co-culture
Description: (xviii) Purification of CB4^+CB25^+ and CD4^+CB25^− T cells. Lymph nodes were harvested and mashed. T cells were enriched by negative selection and purified on CD3-cell columns (MTCC-25; R&D Systems). The enriched T cells were incubated with and-CD8 raicrobeads (Miltenyi Biotec, Bergiseh Gladbach, Germany), and negatively selected CD4^+ T cells were incubated with PE-conjugated anti-CD25 (30 μg/10^8 cells) in PBS/2% fetal calf serum. They were then washed and incubated with anti-PE microbeads (Miltenyi Biotec) and subjected to magnetic separation with AutoMACS (Miltenyi Biotec). The retained cells were eluted from the column as purified CD4^+CD25^+ cells. The negative fraction consisted of CD4^+CD25^− T cells. Cell purity was chceked by FACSort (Becton-Dickinson) and typically ranged from 88% to 95%. Purified cells were cultured in 24-well plates (1 ml).
(xix) Activation of CB4^+CD25^+ regulatory T cells. […]
(xx) Inhibition assay (co-culturing of Teff with Treg). […] After the cells were harvested, their analyzed [^3H]-thymidine content was analyzed by the use of a […].
Naïve Teff cells (50×10^3 cells/well) were co-cultured with decreasing numbers ([…] cells/well) of Treg cells that have been activated for 24 h with anti-CD3 and mrIL 2. […] Recorded values are from one representative experiment out of three and are expressed as means±SD of 4 replicates.

Copolymer 1 [Cop-1]
Effect of vaccination given after psychotomimetic drugs [1]: beneficial | Secretion of BDNF by Cop-1-reactive T cells compared with unstimulated T cells (Cop-1-reactive T cells): significantly increased | BDNF secreted by Cop-1-reactive T cells (mean) (Cop-1-reactive T cells; mean of three independent experiments, no antigen 400): 1220 pg/mL | Treg-mediated suppression of Teff proliferation [2]: alleviated the suppression of Teff compared to the control
